Experimental data published in PubChem BioAssay (NCI).
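Cells were grown in 96-well plates and exposed to each compound for 48 hours at five concentrations; endpoints were interpolated linearly between bracketing concentrations, or set to the highest concentration if not reached. The concentration for full growth arrest is given as TGI.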

What was measured:
Assay in all cases: DTP human tumour cell line panel, 48 h
786-0 renal = system: 786-0 renal
A498 renal = system: A498 renal
A549 NSCLC = system: A549 NSCLC
ACHN renal = system: ACHN renal
BT-549 breast = system: BT-549 breast
CAKI-1 renal = system: CAKI-1 renal
CCRF-CEM leukemia = system: CCRF-CEM leukemia
COLO 205 colon = system: COLO 205 colon
DLD-1 colon = system: DLD-1 colon
DMS 114 small cell lung = system: DMS 114 small cell lung
DMS 273 small cell lung = system: DMS 273 small cell lung
DU-145 prostate = system: DU-145 prostate
EKVX NSCLC = system: EKVX NSCLC
HCC-2998 colon = system: HCC-2998 colon
HCT-116 colon = system: HCT-116 colon
HCT-15 colon = system: HCT-15 colon
HL-60(TB) leukemia = system: HL-60(TB) leukemia
HOP-62 NSCLC = system: HOP-62 NSCLC
HOP-92 NSCLC = system: HOP-92 NSCLC
HS 578T breast = system: HS 578T breast
HT29 colon = system: HT29 colon
IGROV1 ovarian = system: IGROV1 ovarian
K-562 leukemia = system: K-562 leukemia
KM12 colon = system: KM12 colon
KM20L2 colon = system: KM20L2 colon
LOX IMVI melanoma = system: LOX IMVI melanoma
LXFL 529 NSCLC = system: LXFL 529 NSCLC
M14 melanoma = system: M14 melanoma
M19-MEL melanoma = system: M19-MEL melanoma
MALME-3M melanoma = system: MALME-3M melanoma
MCF7 breast = system: MCF7 breast
MDA-MB-231 breast = system: MDA-MB-231 breast
MDA-MB-435 = system: MDA-MB-435
MDA-N = system: MDA-N
MOLT-4 leukemia = system: MOLT-4 leukemia
NCI-H226 lung = system: NCI-H226 lung
NCI-H23 lung = system: NCI-H23 lung
NCI-H460 lung = system: NCI-H460 lung
NCI-H522 lung = system: NCI-H522 lung
NCI/ADR-RES ovarian = system: NCI/ADR-RES ovarian
OVCAR-3 ovarian = system: OVCAR-3 ovarian
OVCAR-4 ovarian = system: OVCAR-4 ovarian
OVCAR-5 ovarian = system: OVCAR-5 ovarian
OVCAR-8 ovarian = system: OVCAR-8 ovarian
PC-3 prostate = system: PC-3 prostate
RPMI-8226 leukemia = system: RPMI-8226 leukemia
RXF 393 renal = system: RXF 393 renal
RXF-631 renal = system: RXF-631 renal
SF-268 CNS = system: SF-268 CNS
SF-295 CNS = system: SF-295 CNS
SF-539 CNS = system: SF-539 CNS
SK-MEL-2 melanoma = system: SK-MEL-2 melanoma
SK-MEL-28 melanoma = system: SK-MEL-28 melanoma
SK-MEL-5 melanoma = system: SK-MEL-5 melanoma
SK-OV-3 ovarian = system: SK-OV-3 ovarian
SN12C renal = system: SN12C renal
SNB-19 CNS = system: SNB-19 CNS
SNB-75 CNS = system: SNB-75 CNS
SNB-78 CNS = system: SNB-78 CNS
SR leukemia = system: SR leukemia
SW-620 colon = system: SW-620 colon
T-47D breast = system: T-47D breast
TK-10 renal = system: TK-10 renal
U251 CNS = system: U251 CNS
UACC-257 melanoma = system: UACC-257 melanoma
UACC-62 melanoma = system: UACC-62 melanoma
UO-31 renal = system: UO-31 renal
XF 498 CNS = system: XF 498 CNS

`O=C1C=CC(=O)c2c(O)c(CO)c(CO)c(O)c21` gave a TGI (786-0 renal) of 723 nM, a TGI (A498 renal) of 3640 nM and a TGI (A549 NSCLC) of 5580 nM. For the same molecule, the TGI (ACHN renal) was 1050 nM, the TGI (BT-549 breast) was 593 nM and the TGI (CAKI-1 renal) was 875 nM. The TGI (CCRF-CEM leukemia) was 195 nM, the TGI (COLO 205 colon) was 171 nM and the TGI (DLD-1 colon) was 202 nM. It also gave a TGI (DMS 114 small cell lung) of 878 nM, a TGI (DMS 273 small cell lung) of 1420 nM and a TGI (DU-145 prostate) of 3270 nM. For the same molecule, the TGI (EKVX NSCLC) was 5030 nM, the TGI (HCC-2998 colon) was 4780 nM and the TGI (HCT-116 colon) was 662 nM. For the same molecule, the TGI (HCT-15 colon) was 490 nM, the TGI (HL-60(TB) leukemia) was 405 nM and the TGI (HOP-62 NSCLC) was 2400 nM. For the same molecule, the TGI (HOP-92 NSCLC) was 944 nM, the TGI (HS 578T breast) was 4710 nM and the TGI (HT29 colon) was 741 nM. For the same molecule, the TGI (IGROV1 ovarian) was 4140 nM, the TGI (K-562 leukemia) was 13400 nM and the TGI (KM12 colon) was 3190 nM. It also gave a TGI (KM20L2 colon) of 2250 nM, a TGI (LOX IMVI melanoma) of 674 nM and a TGI (LXFL 529 NSCLC) of 351 nM. It also gave a TGI (M14 melanoma) of 411 nM, a TGI (M19-MEL melanoma) of 216 nM and a TGI (MALME-3M melanoma) of 467 nM. For the same molecule, the TGI (MCF7 breast) was 337 nM, the TGI (MDA-MB-231 breast) was 2740 nM and the TGI (MDA-MB-435) was 1660 nM. The TGI (MDA-N) was 736 nM, the TGI (MOLT-4 leukemia) was 188 nM and the TGI (NCI-H226 lung) was 5030 nM. It also gave a TGI (NCI-H23 lung) of 1300 nM, a TGI (NCI-H460 lung) of 2790 nM and a TGI (NCI-H522 lung) of 239 nM. It also gave a TGI (NCI/ADR-RES ovarian) of 8200 nM, a TGI (OVCAR-3 ovarian) of 1710 nM and a TGI (OVCAR-4 ovarian) of 581 nM. The TGI (OVCAR-5 ovarian) was 3540 nM, the TGI (OVCAR-8 ovarian) was 2040 nM and the TGI (PC-3 prostate) was 4370 nM. For the same molecule, the TGI (RPMI-8226 leukemia) was 814 nM, the TGI (RXF 393 renal) was 939 nM and the TGI (RXF-631 renal) was 2550 nM. The TGI (SF-268 CNS) was 3930 nM, the TGI (SF-295 CNS) was 3190 nM and the TGI (SF-539 CNS) was 1710 nM. It also gave a TGI (SK-MEL-2 melanoma) of 2580 nM, a TGI (SK-MEL-28 melanoma) of 960 nM and a TGI (SK-MEL-5 melanoma) of 1120 nM. It also gave a TGI (SK-OV-3 ovarian) of 18000 nM, a TGI (SN12C renal) of 774 nM and a TGI (SNB-19 CNS) of 6130 nM. For the same molecule, the TGI (SNB-75 CNS) was 1640 nM, the TGI (SNB-78 CNS) was 3520 nM and the TGI (SR leukemia) was 481 nM. It also gave a TGI (SW-620 colon) of 288 nM, a TGI (T-47D breast) of 1520 nM and a TGI (TK-10 renal) of 842 nM. It also gave a TGI (U251 CNS) of 5350 nM, a TGI (UACC-257 melanoma) of 883 nM and a TGI (UACC-62 melanoma) of 1880 nM. It also gave a TGI (UO-31 renal) of 2200 nM and a TGI (XF 498 CNS) of 665 nM.
